Data as given in US4975450A, “Antidiarrheal” (Slovenska Akademia Vied, priority 1987, dated 1990).
Like-named read-outs stand apart in the source and are kept apart here.

Experiments:
[1] = in vivo; settings: rat
[2] = V. Nosalova et al 1986; cited from earlier work
[3] = tested on: rats; experiment: one month toxicity study of rats; format: in vivo
[4] = tested on: intestinal passage of carbo adsorbens; experiment: intestinal passage of carbo adsorbens, mice; format: in vivo; settings: for intestinal passage of carbo adsorbens, complete intestine: atropin 5 mg/kg, reference 75.0 ± 1.9
Procedure: (§1) The active substance in 20 mg dose per one kg, if administered 30 minutes before administering castor oil, has extended the latent period up to the beginning of the diarrhea from 91.2±4.4 minutes to 127.3±6.3 minutes. […] (Table 1).
(§2) TABLE 1 - Influence of pharmaceutical substances on the intestinal passage of carbo adsorbens (100% is the complete intestine length): […]

[5] = in vivo; settings: guinea pig
[6] = tested on: rat; settings: in vivo
[7] = tested on: mice; settings: mouse, in vivo
[8] = tested on: Salmonella typhimurium; experiment: mutation tests and reparative tests, Salmonella typhimurium
[9] = in vivo; settings: mouse
[10] = tested on: intestinal passage of carbo adsorbens; experiment: intestinal passage of carbo adsorbens, rats; format: in vivo; settings: for intestinal passage of carbo adsorbens, small intestines: 100% is the complete intestine length, substance 20 mg/kg, atropin 5 mg/kg, reference 58.7 ± 2.5
Procedure: as §1, §2

[11] = tested on: mice; settings: mouse, in vivo; remark: listed apart in the source
[12] = tested on: mice; experiment: castor oil-provoked diarrhea in mice; format: in vivo; settings: 20 mg/kg, 30 minutes before castor oil; control 91.2±4.4 minutes
[13] = tested on: Escherichia coli
[14] = retention of stomach content; format: in vivo; settings: active substance 10-20 mg/kg; atropin dose not stated
[15] = in vivo; settings: rabbit
[16] = tested on: adenylate cyclase; settings: Hynie et al 1986; cited from earlier work
[17] = cited from earlier work
[18] = tested on: dogs (beagle); experiment: chronic six months toxicity study on dogs; format: in vivo
[19] = tested on: mice; experiment: teratological and embryotoxic experiments on mice
[20] = tested on: calves; experiment: reduction of diarrhea occurrence in new-born calves; format: in vivo
Procedure: With the referenoe individuals (n=66) diarrhea has occurred with about 80% thereof. The medicament of the invention, if administered for 2 to 3 days in a 10 mg daily dose, reduced the diarrhea ocourrence by 40-50%, and with a 20 mg d aily dose during 3 days of administration even less than 4% (P<0.01). In the control group of calves to which no medicament was administered, a multiple mortality has been observed.

[21] = 100% is the complete intestine length, substance 20 mg/kg

Which results are given for `CCCCCOc1cccc(NC(=O)O[C@@H]2CCCC[C@H]2N2CCCC2)c1` (relative stereo) [substance of the formula, (±)-trans-2(1-pyrrolidinyl) cyclohexylester of 3-(n)-pentyloxycarbanilic acid]?
LD50 ([1]; ip): 70 mg/kg; LD50 ([1]; iv): 11.8 mg/kg; LD50 ([1]; po): 1110 mg/kg; LD50 ([1]; sc): 295 mg/kg; antiulcerose / gastric cytoprotective effect [2]: antiulcerose effects with a marked gastric cytoprotective effect; hematological, biochemical and morphological indices or animal weight ([3]; p.o. 0.1, 1, 10 mg/kg): neither hematological, biochemical and morphological indices or the animal weight have not been considerably influenced; influence on behavior ([3]; p.o. 0.1, 1, 10 mg/kg): has not shown any influence on the behavior of animals; increase in weight ([3]; p.o., two highest doses): in some cases lower than average; influence on passage of intestine content (in words) [4]: does not significantly influence the passage of intestine content; intestinal passage of carbo adsorbens, complete intestine [4, 21]: 80.3 ± 1.2%; intestinal passage of carbo adsorbens, small intestine ([4]; 100% is the complete intestine length, substance 20 mg/kg, reference 91.7 ± 2.2): 96.6 ± 0.95%; LD50 ([5]; iv): 7.8 mg/kg; LD50 ([5]; sc): 73.2 mg/kg; LD50 ([6]; ip): 75 mg/kg; LD50 ([6]; iv): 13.8 mg/kg; LD50 ([6]; po): 1030 mg/kg; LD50 ([6]; sc): 283 mg/kg; LD50 ([7]; ip): 59 mg/kg; LD50 ([7]; po): 840 mg/kg; LD50 ([7]; sc): 128 mg/kg; mutation changes in reparative tests [8]: have not been observed; qualitative or quantitative mutations [8]: have not been observed; LD50 ([9]; ip): 56 mg/kg; LD50 ([9]; iv): 10.3 mg/kg; LD50 ([9]; po): 790 mg/kg; LD50 ([9]; sc): 122 mg/kg; influence on passage of intestine content (in words) [10]: does not significantly influence the passage of intestine content; intestinal passage of carbo adsorbens, small intestines [10]: 60.1 ± 1.5%; occurrence of skeletal abnormalities [11]: the same as in the reference group; latent period up to the beginning of the diarrhea [12]: 127.3 ± 6.3 min; mutation changes in reparative tests [13]: have not been observed; qualitative or quantitative mutations [13]: have not been observed; retention of stomach content [14]: unchanged; LD50 ([15]; ip): 46.5 mg/kg; LD50 ([15]; iv): 2.92 mg/kg; reduction of adenylate cyclase activity [16]: a significant reduction of adenylate cyclase activity; locally anaesthetic effect ([17]; L. Benes et al 1969): exhibits the well-known locally anaesthetic effects; locally anaesthetic and spasmolytic effects ([17]; P. Svec et al 1976): locally anaesthetic and spasmolytic effects; locally anaesthetic activity at decreased pH ([17]; media with decreased pH value at the acid side, S. Stole et al 1978): maintenance of its locally anaesthetic activity even in media with decreased pH value at the acid side; changes in weight of dogs ([18]; both sexes, six months, p.o. 2, 10, 30 mg/kg): has not exhibited with doses of 2; 10; 30 mg/kg any extensive changes in the weight of dogs; harmfulness of the substance in the six months period ([18]; p.o., dose range up to 2 mg/kg): no proofs about any harmfulness of the substance; toxicity at the high doses (weight, behavior, mortality) ([18]; six months, p.o., two highest doses): a decrease in weight, defective behavior and mortality have occurred; toxic effect in hematological, biochemical and morphological indices ([18]; six months, p.o., two lower doses): No toxic effect in hematological, biochemical and morphological indices has been observed with the two lower doses; heart activity and psychomotoric changes ([18]; six months, p.o., two lower doses (exception)): minor changes in the heart activity, and particularly by influencing the pulse conductivity and further by psychomotoric unrest; fetal weight, implantates, placenta and amniotic liquor ([19]; 0.21, 2.1, 8.4, 21, 42, 84 mg/kg): no changes in the amounts of fetal weight implantates, placenta and amniotio liquor were found; fetuses with palate fissure ([19]; only at highest dose of 84 mg/kg): less than 10%; mortality of untreated control calves compared with treated calves (in words) ([20]; bovine, in vivo): a statistically considerably higher number perish; reduction of diarrhea occurrence ([20]; calves, average 40 kg, 10 mg daily dose, 2 to 3 days, reference about 80% (n=66)): 40-50%; diarrhea occurrence (printed as: reduced ... even less than 4%) ([20]; calves, average 40 kg, 20 mg daily dose, 3 days, P<0.01, reference about 80% (n=66)): less than 4%; reduction of diarrhea (in words) ([20]; calves, 10 and 20 mg per diem, one to three days after birth): significant reduction of diarrhea with involved animals depending upon the dose applied

For `CN1C2CCC1CC(OC(=O)C(CO)c1ccccc1)C2` (stereo not shown) [atropin, reference compound], which “intestinal passage of carbo adsorbens, complete intestine” value [4, 21] is on record?
Its value is 51.4 ± 2.6%.

And the “intestinal passage of carbo adsorbens, small intestines” value [10]?
Its value is 46.3 ± 2.5%.
